# Measured values as given in US20240400572A1, “COMPOUNDS AND METHODS FOR TREATING CANCERS THAT ARE MGMT DEFICIENT REGARDLESS OF MMR STATUS” (Yale University, priority 2021, published 2024).
# Entries after “also recorded” stand apart in the source; their conditions may differ. Read-outs that look alike come from different tables or passages of the source.
# What was measured:
# [1] = tested on: four isogenic LN229 glioblastoma cell lines (MGMT+/−, MMR+/−); assay type: cell-based; conditions: for cytotoxicity and selectivity in the four isogenic cell lines (in words): LN229 MGMT+/−, MMR+/− cells; for therapeutic index: IC50 in MGMT proficient and MMR proficient cells divided by IC50 in MGMT deficient and MMR deficient cells (FIG. 8)
# Experimental: (§1) Short-term Cell Viability Assay. Cells were seeded in 96-well plates at 1000 or 2000 cells/well and allowed to adhere at 23° C. for 60 min and then incubated overnight at 37° C. Cells were treated with indicated concentrations of compounds in triplicate for 4-6 days prior to fixation with 3.7% paraformaldehyde and nuclear staining with 1 μg/mL Hoechst 33342 dye. Cells were imaged on a Cytation 3 imaging reader (BioTek) and quantified using CellProfiler software.
# Statistical analysis. Statistical analysis was performed using GraphPad Prism software. Data are presented as mean or median±SD or SEM as indicated. For in vitro short-term growth delay experiments, IC50 values were determined from the nonlinear regression equation, [inhibitor] vs normalized response with variable slope. For micronuclei assays, comparisons were made with one-way ANOVA and Sidak correction for multiple comparisons. For xenograft growth delay experiments, comparisons were made with Mann-Whitney test (for comparison of 2 groups) or Kruskal-Wallis test with FDR-adjusted p-values with Q set to 5% (for comparison of ≥3 groups). For xenograft survival analysis, Kaplan-Meier analysis was used to evaluate survival rate based on death or removal from study when body weight loss exceeded 20% of initial body weight
# We synthesized the imidazotetrazine 4a (KL-50) and the triazene 4b (KL-85), as vehicles to deliver 2-fluoroethyl diazonium (4c), and a series of related agents to probe structure-activity relationships in tissue culture (FIG. Z1, D and F). The 2-fluoropropyl- and 3-fluoropropyl-triazenes (10 and 11, respectively) were prepared by diazotization of 4-aminoimdazole-5-carboxamide, followed by the addition of the respective amine. All other triazenes were prepared according to literature procedures. We evaluated the cytotoxicity of our compounds in short-term cell viability assays against four isogenic LN229 glioblastoma cell lines engineered to be proficient or deficient in MGMT and/or MMR activity, using short hairpin RNAs (shRNAs) targeting MSH2 (referred to as MGMT+/−, MMR+/− cells hereafter; FIG. ZS2A). This approach allowed us to rapidly and rigorously interrogate the relationship between MGMT and MMR status and compound activity.
# The compounds 10a through 10l and TMZ were tested in the short-term cell viability assay.
# [2] = tested on: DLD1 MSH6-deficient cells; test: Short-term cell viability assay with or without O^6BG; assay type: cell-based, human; conditions: DLD1 (MGMT+, MSH6−), with or without 10 μM O^6BG-induced MGMT depletion
# Text: (§2) FIGS. Z2A-Z2H. […] (FIG. Z2A) IC50 values derived from short-term viability assays in LN229 MGMT+/−, MMR+/− cells treated with TMZ (1a) derivatives. ^aMGMT TI (therapeutic index)=IC50 (MGMT+/MMR+) divided by IC50 (MGMT−/MMR+). ^bMMR RI (resistance index)=IC50 (MGMT−/MMR−) divided by IC50 (MGMT−/MMR+). (FIG. Z2B) Short-term viability assay curves for TMZ (1a), CCNU (14), KL-85 (4b), and KL-50 (4a) in LN229 MGMT+/−, MMR+/− cells. (FIG. Z2C) Clonogenic survival curves for TMZ (1a) in LN229 MGMT+/−, MMR+/− cells, with representative images of wells containing 1000 plated cells treated with 30 μM TMZ (1a). (FIG. Z2D) Clonogenic survival curves for KL-50 (4a) in LN229 MGMT+/−, MMR+/− cells, with representative images of wells containing 1000 plated cells treated with 30 μM KL-50 (4a). (FIG. Z2E) Short-term viability assay curves for TMZ (1a) in DLD1 MSH6-deficient cells pre-treated with 0.01% DMSO control (CTR) or 10 μM O^6BG (+O^6BG) for 1 h prior to TMZ (1a) addition to deplete MGMT. (FIG. Z2F) Short-term viability assay curves for KL-50 (4a) in DLD1 MSH6-deficient cells pre-treated with 0.01% DMSO control (CTR) or 10 μM O^6BG (+O^6BG) for 1 h prior to KL-50 (4a) addition. (FIG. Z2G) Short-term viability assay curves for TMZ (1a) in HCT116 MLH1−/− cells or HCT116 cells complemented with chromosome 3 carrying wildtype MLH1 (+Chr3) pre-treated with 0.01% DMSO control or 10 μM O^6BG (+O^6BG) for 1 h prior to TMZ (1a) addition. (FIG. Z2H) Short-term viability assay curves for KL-50 (4a) in HCT116 MLH1−/− cells or HCT116 cells complemented with chromosome 3 carrying wildtype MLH1 (+Chr3) pre-treated with 0.01% DMSO control or 10 μM O^6BG (+O^6BG) for 1 h prior to KL-50 (4a) addition. For (FIG. Z2B), (FIG. Z2C), (FIG. Z2D), (FIG. Z2E), (FIG. Z2F), (FIG. Z2G), and (FIG. Z2H), points, mean; error bars, SD; n≥3 technical replicates.
# as §1
# [3] = tested on: HCT116 MLH1−/− cells and HCT116+Chr3 cells; test: as above; assay type: cell-based, human; conditions: for cytotoxicity in HCT116 MLH1−/− cells (in words): MLH1-deficient, with or without 10 μM O^6BG; for cytotoxicity in HCT116+Chr3 cells (in words): complemented with chromosome 3 containing MLH1, with or without 10 μM O^6BG
# Text: as §2, §1
Structure (SMILES),cytotoxicity and selectivity in the four isogenic cell lines (in words) ([1]; listed as N-methyl KL50),therapeutic index [1],selectivity for MGMT-deficient cells ([1]; LN229 MGMT+ versus MGMT− cells) [fold],cytotoxicity and selectivity in the four isogenic cell lines (in words) [1],cytotoxicity and selectivity in the four isogenic cell lines (in words) ([1]; listed as 4a),cytotoxicity in DLD1 cells (in words) [2],cytotoxicity in HCT116 MLH1−/− cells (in words) [3],cytotoxicity in HCT116+Chr3 cells (in words) [3]
"CNC(=O)c1ncn2c(=O)n(CCF)nnc12 [Compound I-1, 3-(2-fluoroethyl)-N-methyl-4-oxo-3H,4H-imidazo[4,3-d][1,2,3,5]tetrazine-8-carboxamide]","comparable to those for KL50 itself; also recorded: preferable toxicity for MGMT− cells compared to MGMT^+ cells, regardless of MMR status",,,,,,,
"NC(=O)c1ncn2c(=O)n(CCF)nnc12 [KL-50, 3-(2-fluoroethyl)-4-oxo-3H,4H-imidazo[4,3-d][1,2,3,5]tetrazine-8-carboxamide]",,26.64,~25,"preferable toxicity for MGMT− cells compared to MGMT^+ cells, regardless of MMR status",mirrored that of 4b,"toxic to these cells, but only after O^6BG-induced MGMT depletion",selective tumor cell killing specifically in the setting of O^6BG-induced MGMT suppression,selective tumor cell killing specifically in the setting of O^6BG-induced MGMT suppression
"Cn1nnc2c(C(N)=O)ncn2c1=O [TMZ, temozolomide, reference compound]",,less than one,,,,inactive,inactive,"enhanced sensitivity to TMZ (1a), which was further potentiated by MGMT depletion"
